# Measured values from ChEMBL document CHEMBL3390836, “Mannich- and LedererManasse-based analogues of the natural product S-(+)-curcuphenol as cancer proliferation and migration inhibitors” (Medchemcomm, 2012).
# Tests used:
# Type in all cases: functional
# [1] = system: CAKI-1; assay: Cytotoxicity against human Caki1 cells assessed as cell growth at 10^-4 M after 48 hrs by SRB assay relative to control; details: CAKI-1, 48 h, read-out: Activity
# [2] = system: 786-0; assay: Cytotoxicity against human 786-0 cells assessed as cell growth at 10^-8 M after 48 hrs by SRB assay relative to control; details: 786-0, 48 h, read-out: Activity
# [3] = system: MDA-MB-468; assay: Cytotoxicity against human MDA-MB-468 cells assessed as cell growth at 10^-7 M after 48 hrs by SRB assay relative to control; details: MDA-MB-468, 48 h, read-out: Activity
# [4] = system: MOLT-4; assay: Cytotoxicity against human MOLT4 cells assessed as cell growth at 10^-8 M after 48 hrs by SRB assay relative to control; details: MOLT-4, 48 h, read-out: Activity
# [5] = system: 786-0; assay: Cytotoxicity against human 786-0 cells assessed as cell growth at 10^-6 M after 48 hrs by SRB assay relative to control; details: 786-0, 48 h, read-out: Activity
# [6] = system: NCI-H226; assay: Cytotoxicity against human NCI-H226 cells after 48 hrs by SRB assay; details: NCI-H226, 48 h
# [7] = Cytotoxicity against human SKOV3 cells assessed as cell growth at 10^-8 M after 48 hrs by SRB assay relative to control; details: SK-OV-3, 48 h, read-out: Activity
# [8] = system: A549; assay: Cytotoxicity against human A549 cells assessed as cell growth at 10^-6 M after 48 hrs by SRB assay relative to control; details: A549, 48 h, read-out: Activity
# [9] = Cytotoxicity against human SKOV3 cells assessed as cell growth at 10^-7 M after 48 hrs by SRB assay relative to control; details: SK-OV-3, 48 h, read-out: Activity
# [10] = system: MCF7; assay: Cytotoxicity against human MCF7 cells assessed as cell growth at 10^-4 M after 48 hrs by SRB assay relative to control; details: MCF7, 48 h, read-out: Activity
# [11] = Cytotoxicity against human SKOV3 cells assessed as cell growth at 10^-4 M after 48 hrs by SRB assay relative to control; details: SK-OV-3, 48 h, read-out: Activity
# [12] = system: 786-0; assay: Cytotoxicity against human 786-0 cells assessed as cell growth at 10^-4 M after 48 hrs by SRB assay relative to control; details: 786-0, 48 h, read-out: Activity
# [13] = system: RXF 393; assay: Cytotoxicity against human RXF393 cells assessed as cell growth at 10^-8 M after 48 hrs by SRB assay relative to control; details: RXF 393, 48 h, read-out: Activity
# [14] = Cytotoxicity against human NCI-ADR-RES cells assessed as cell growth at 10^-4 M after 48 hrs by SRB assay relative to control; details: read-out: Activity
# [15] = system: A549; assay: Cytotoxicity against human A549 cells assessed as cell growth at 10^-7 M after 48 hrs by SRB assay relative to control; details: A549, 48 h, read-out: Activity
# [16] = system: HT-29; assay: Cytotoxicity against human HT-29 cells assessed as cell growth at 10^-7 M after 48 hrs by SRB assay relative to control; details: HT-29, 48 h, read-out: Activity
# [17] = system: SK-MEL-28; assay: Cytotoxicity against human SK-MEL-28 cells assessed as cell growth at 10^-4 M after 48 hrs by SRB assay relative to control; details: SK-MEL-28, 48 h, read-out: Activity
# [18] = system: LOX IMVI; assay: Cytotoxicity against human LOXIMVI cells assessed as cell growth at 10^-7 M after 48 hrs by SRB assay relative to control; details: read-out: Activity
# [19] = Cytotoxicity against human UO31 cells assessed as cell growth at 10^-6 M after 48 hrs by SRB assay relative to control; details: UO-31, 48 h, read-out: Activity
# [20] = Cytotoxicity against human UACC62 cells assessed as cell growth at 10^-8 M after 48 hrs by SRB assay relative to control; details: UACC-62, 48 h, read-out: Activity
# [21] = system: Malme-3M; assay: Cytotoxicity against human MALME-3M cells after 48 hrs by SRB assay; details: for CC50: read-out: LC50 (the source's name)
# [22] = system: SK-MEL-2; assay: Cytotoxicity against human SK-MEL-2 cells assessed as cell growth at 10^-6 M after 48 hrs by SRB assay relative to control; details: SK-MEL-2, 48 h, read-out: Activity
# [23] = system: MDA-MB-468; assay: Cytotoxicity against human MDA-MB-468 cells assessed as cell growth at 10^-8 M after 48 hrs by SRB assay relative to control; details: MDA-MB-468, 48 h, read-out: Activity
# [24] = Cytotoxicity against human NCI-ADR-RES cells assessed as cell growth at 10^-7 M after 48 hrs by SRB assay relative to control; details: read-out: Activity
# [25] = system: IGROV-1; assay: Cytotoxicity against human IGROV1 cells assessed as cell growth at 10^-7 M after 48 hrs by SRB assay relative to control; details: IGROV-1, 48 h, read-out: Activity
# [26] = system: NCI-H322M; assay: Cytotoxicity against human NCI-H322M cells assessed as cell growth at 10^-6 M after 48 hrs by SRB assay relative to control; details: read-out: Activity
# [27] = Cytotoxicity against human UO31 cells assessed as cell growth at 10^-4 M after 48 hrs by SRB assay relative to control; details: UO-31, 48 h, read-out: Activity
# [28] = system: A549; assay: Cytotoxicity against human A549 cells after 48 hrs by SRB assay; details: A549, 48 h
# [29] = system: MDA-MB-435; assay: Cytotoxicity against human MDA-MB-435 cells after 48 hrs by SRB assay; details: MDA-MB-435, 48 h; for CC50: read-out: LC50 (the source's name)
# [30] = Cytotoxicity against human OVCAR3 cells assessed as cell growth at 10^-6 M after 48 hrs by SRB assay relative to control; details: OVCAR-3, 48 h, read-out: Activity
# [31] = system: T47D; assay: Cytotoxicity against human T47D cells assessed as cell growth at 10^-4 M after 48 hrs by SRB assay relative to control; details: read-out: Activity
# [32] = system: U-251; assay: Cytotoxicity against human U251 cells assessed as cell growth at 10^-8 M after 48 hrs by SRB assay relative to control; details: U-251, 48 h, read-out: Activity
# [33] = system: HCC 2998; assay: Cytotoxicity against human HCC2998 cells assessed as cell growth at 10^-8 M after 48 hrs by SRB assay relative to control; details: HCC 2998, 48 h, read-out: Activity
# [34] = system: SF-539; assay: Cytotoxicity against human SF539 cells after 48 hrs by SRB assay; details: SF-539, 48 h; for CC50: read-out: LC50 (the source's name)
# [35] = Cytotoxicity against human PC3 cells assessed as cell growth at 10^-6 M after 48 hrs by SRB assay relative to control; details: PC-3, 48 h, read-out: Activity
# [36] = Cytotoxicity against human PC3 cells after 48 hrs by SRB assay; details: PC-3, 48 h
# [37] = Cytotoxicity against human OVCAR5 cells after 48 hrs by SRB assay; details: OVCAR-5, 48 h; for CC50: read-out: LC50 (the source's name)
compound,measurement,setting,value
COc1ccc(CCN2COc3c([C@@H](C)CCC=C(C)C)ccc(C)c3C2)cc1OC,growth at 100 µM,[1],-86%
same,growth at 0.01 µM,[2],101%
same,growth at 0.1 µM,[3],60%
same,growth at 0.01 µM,[4],90%
same,growth at 1 µM,[5],96%
same,GI50,[6],8.64 µM
same,LC50,[6],49.1 µM
same,TGI,[6],21.6 µM
same,growth at 0.01 µM,[7],97%
same,growth at 1 µM,[8],95%
same,growth at 0.1 µM,[9],98%
same,growth at 100 µM,[10],-92%
same,growth at 100 µM,[11],-60%
same,growth at 100 µM,[12],-100%
same,growth at 0.01 µM,[13],70%
same,growth at 100 µM,[14],-90%
same,growth at 0.1 µM,[15],96%
same,growth at 0.1 µM,[16],93%
same,growth at 100 µM,[17],-95%
same,growth at 0.1 µM,[18],84%
same,growth at 1 µM,[19],76%
same,growth at 0.01 µM,[20],95%
same,GI50,[21],1.53 µM
same,TGI,[21],3.18 µM
same,CC50,[21],6.61 µM
same,growth at 1 µM,[22],94%
same,growth at 0.01 µM,[23],75%
same,growth at 0.1 µM,[24],99%
same,growth at 0.1 µM,[25],97%
same,growth at 1 µM,[26],92%
same,growth at 100 µM,[27],-96%
same,GI50,[28],10.3 µM
same,LC50,[28],96.3 µM
same,TGI,[28],31.5 µM
same,GI50,[29],3.11 µM
same,TGI,[29],10.9 µM
same,CC50,[29],44.9 µM
same,growth at 1 µM,[30],91%
same,growth at 100 µM,[31],-91%
same,growth at 0.01 µM,[32],92%
same,growth at 0.01 µM,[33],77%
same,GI50,[34],4.47 µM
same,TGI,[34],15.9 µM
same,CC50,[34],39.9 µM
same,growth at 1 µM,[35],81%
same,GI50,[36],1.95 µM
same,LC50,[36],49.3 µM
same,TGI,[36],5.83 µM
same,GI50,[37],8.53 µM
same,TGI,[37],20.8 µM
same,CC50,[37],45.6 µM
CC(C)=CCC[C@H](C)c1ccc(C)c2c1OCN(CC1CCNCC1)C2,growth at 100 µM,[1],-69%
same,growth at 0.01 µM,[2],96%
same,growth at 0.1 µM,[3],94%
same,growth at 0.01 µM,[4],106%
same,growth at 1 µM,[5],99%
same,GI50,[6],17.7 µM
same,LC50,[6],64.5 µM
same,TGI,[6],33.8 µM
same,growth at 0.01 µM,[7],101%
same,growth at 1 µM,[8],96%
same,growth at 0.1 µM,[9],98%
same,growth at 100 µM,[10],-95%
same,growth at 100 µM,[11],-94%
same,growth at 100 µM,[12],-87%
same,growth at 0.01 µM,[13],86%
same,growth at 100 µM,[14],-73%
same,growth at 0.1 µM,[15],90%
same,growth at 0.1 µM,[16],112%
same,growth at 100 µM,[17],-98%
same,growth at 0.1 µM,[18],92%
same,growth at 1 µM,[19],91%
same,growth at 0.01 µM,[20],95%
same,GI50,[21],17.7 µM
same,TGI,[21],35.3 µM
same,CC50,[21],70.2 µM
same,growth at 1 µM,[22],120%
same,growth at 0.01 µM,[23],94%
same,growth at 0.1 µM,[24],98%
same,growth at 0.1 µM,[25],107%
same,growth at 1 µM,[26],108%
same,growth at 100 µM,[27],-86%
same,GI50,[28],13 µM
same,LC50,[28],59.7 µM
same,TGI,[28],27.8 µM
same,GI50,[29],6.48 µM
same,TGI,[29],20.9 µM
same,CC50,[29],53.4 µM
same,growth at 1 µM,[30],105%
same,growth at 100 µM,[31],-70%
same,growth at 0.01 µM,[32],99%
same,growth at 0.01 µM,[33],111%
same,GI50,[34],13.7 µM
same,TGI,[34],27.5 µM
same,CC50,[34],55.3 µM
same,growth at 1 µM,[35],103%
same,GI50,[36],16.5 µM
same,LC50,[36],> 100 µM
same,TGI,[36],42.1 µM
same,GI50,[37],14.3 µM
same,TGI,[37],28.8 µM
same,CC50,[37],57.7 µM
CC(C)=CCC[C@H](C)c1ccc(C)c(CNCC2CCNCC2)c1O,growth at 100 µM,[1],-29%
same,growth at 0.01 µM,[2],93%
same,growth at 0.1 µM,[3],77%
same,growth at 0.01 µM,[4],107%
same,growth at 1 µM,[5],85%
same,GI50,[6],10.4 µM
same,LC50,[6],> 25 µM
same,TGI,[6],> 25 µM
same,growth at 0.01 µM,[7],99%
same,growth at 1 µM,[8],98%
same,growth at 0.1 µM,[9],93%
same,growth at 100 µM,[10],-89%
same,growth at 100 µM,[11],8%
same,growth at 100 µM,[12],-47%
same,growth at 0.01 µM,[13],101%
same,growth at 100 µM,[14],46%
same,growth at 0.1 µM,[15],98%
same,growth at 0.1 µM,[16],105%
same,growth at 100 µM,[17],-91%
same,growth at 0.1 µM,[18],95%
same,growth at 1 µM,[19],84%
same,growth at 0.01 µM,[20],97%
same,GI50,[21],4.5 µM
same,TGI,[21],9.68 µM
same,CC50,[21],20.8 µM
same,growth at 1 µM,[22],116%
same,growth at 0.01 µM,[23],95%
same,growth at 0.1 µM,[24],100%
same,growth at 0.1 µM,[25],97%
same,growth at 1 µM,[26],99%
same,growth at 100 µM,[27],-29%
same,GI50,[28],7.27 µM
same,LC50,[28],> 25 µM
same,TGI,[28],24.9 µM
same,GI50,[29],3.71 µM
same,TGI,[29],8.44 µM
same,CC50,[29],19.2 µM
same,growth at 1 µM,[30],103%
same,growth at 100 µM,[31],-73%
same,growth at 0.01 µM,[32],96%
same,growth at 0.01 µM,[33],101%
same,GI50,[34],4.07 µM
same,TGI,[34],8.32 µM
same,CC50,[34],17 µM
same,growth at 1 µM,[35],101%
same,GI50,[36],6.88 µM
same,LC50,[36],> 25 µM
same,TGI,[36],> 25 µM
same,GI50,[37],9.56 µM
same,TGI,[37],> 25 µM
same,CC50,[37],> 25 µM
